# Results as given in US7265246B2, “Indane derivates as muscarinic receptor agonists” (Eli Lilly and Company, priority 2003, dated 2007).
# Where two headings read alike, the source gives them in different places.
# Tested on: Male Sprague-Dawley rats
# Settings: s.c. immediately after the sampling phase, six-hour delay
smiles,measurement,setting,value
"Nc1c2c(nc3ccccc13)CCCC2 [Tacrine, tacrine]",retention in the eight arm radial maze,3 mg/kg,not
same,retention in the eight arm radial maze,10 mg/kg,significantly improved retention
